Measurements: the supplement of paper PMC10307832

What was measured:
Experiment in all cases: relative viability (nuclei count vs DMSO), 5 days (fraction); higher = more cells survive
PC-14 = system: PC-14
Method in brief: (§1)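 Relative viability equals treated-well nuclei counts divided by vehicle-well nuclei counts. Counts came from 4× images of lung cancer cell lines grown in 1536-well plates for 5 days after pin-tool dosing on the day after seeding. Dosing used one drug alone or a fixed anchor-drug dose plus five library-drug doses (not always all listed) in √10 steps, and values are medians of duplicate plates.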

HCC-366 = system: HCC-366
Method in brief: as §1

CAL-12T = system: CAL-12T
Method in brief: as §1

SW 900 = system: SW 900
Method in brief: as §1

NCI-H1437 = system: NCI-H1437
Method in brief: as §1

NCI-H1666 = system: NCI-H1666
Method in brief: as §1

NCI-H460 = system: NCI-H460
Method in brief: as §1

201T = system: 201T
Method in brief: as §1

NCI-H3122 = system: NCI-H3122
Method in brief: as §1

HARA = system: HARA
Method in brief: as §1

LOU-NH91 = system: LOU-NH91
Method in brief: as §1

LK-2 = system: LK-2
Method in brief: as §1

BEN = system: BEN
Method in brief: as §1

NCI-H441 = system: NCI-H441
Method in brief: as §1

NCI-H2170 = system: NCI-H2170
Method in brief: as §1

NCI-H727 = system: NCI-H727
Method in brief: as §1

ABC-1 = system: ABC-1
Method in brief: as §1

EKVX = system: EKVX
Method in brief: as §1

Structure (SMILES): COc1nc(C)cnc1NS(=O)(=O)c1cccnc1-c1ccc(-c2nnco2)cc1 [Zibotentan] + NC(=O)Nc1cc(-c2cccc(F)c2)sc1C(=O)N[C@H]1CCCNC1 [AZD7762] (partner 0.2 µM)
- relative viability (PC-14; first compound 0.08 µM): 0.445
- relative viability (PC-14; first compound 0.253 µM): 0.264
- relative viability (PC-14; first compound 0.8 µM): 0.324
- relative viability (PC-14; first compound 2.53 µM): 0.369
- relative viability (HCC-366; first compound 0.08 µM): 0.28
- relative viability (HCC-366; first compound 0.253 µM): 0.208
- relative viability (HCC-366; first compound 0.8 µM): 0.103
- relative viability (HCC-366; first compound 2.53 µM): 0.343
- relative viability (CAL-12T; first compound 0.08 µM): 0.604
- relative viability (CAL-12T; first compound 0.253 µM): 0.498
- relative viability (CAL-12T; first compound 0.8 µM): 0.526
- relative viability (CAL-12T; first compound 2.53 µM): 0.666
- relative viability (SW 900; first compound 0.08 µM): 0.68
- relative viability (SW 900; first compound 0.253 µM): 0.561
- relative viability (SW 900; first compound 0.8 µM): 0.495
- relative viability (SW 900; first compound 2.53 µM): 0.725
- relative viability (NCI-H1437; first compound 0.08 µM): 1.14
- relative viability (NCI-H1437; first compound 0.253 µM): 0.897
- relative viability (NCI-H1437; first compound 0.8 µM): 1.05
- relative viability (NCI-H1437; first compound 2.53 µM): 1.15
- relative viability (NCI-H1666; first compound 0.08 µM): 0.866
- relative viability (NCI-H1666; first compound 0.253 µM): 0.795
- relative viability (NCI-H1666; first compound 0.8 µM): 0.898
- relative viability (NCI-H1666; first compound 2.53 µM): 0.791
- relative viability (NCI-H460; first compound 0.08 µM): 0.784
- relative viability (NCI-H460; first compound 0.253 µM): 0.539
- relative viability (NCI-H460; first compound 0.8 µM): 0.251
- relative viability (NCI-H460; first compound 2.53 µM): 0.749
- relative viability (201T; first compound 0.08 µM): 0.644
- relative viability (201T; first compound 0.253 µM): 0.604
- relative viability (201T; first compound 0.8 µM): 0.624
- relative viability (201T; first compound 2.53 µM): 0.569
- relative viability (NCI-H3122; first compound 0.08 µM): 1.01
- relative viability (NCI-H3122; first compound 0.253 µM): 0.999
- relative viability (NCI-H3122; first compound 0.8 µM): 0.915
- relative viability (NCI-H3122; first compound 2.53 µM): 0.966
- relative viability (HARA; first compound 0.08 µM): 0.254
- relative viability (HARA; first compound 0.8 µM): 0.302
- relative viability (HARA; first compound 2.53 µM): 0.416
- relative viability (LOU-NH91; first compound 0.08 µM): 0.838
- relative viability (LOU-NH91; first compound 0.253 µM): 0.702
- relative viability (LOU-NH91; first compound 0.8 µM): 0.773
- relative viability (LOU-NH91; first compound 2.53 µM): 0.795
- relative viability (LK-2; first compound 0.08 µM): 0.479
- relative viability (LK-2; first compound 0.253 µM): 0.327
- relative viability (LK-2; first compound 0.8 µM): 0.441
- relative viability (LK-2; first compound 2.53 µM): 0.282
- relative viability (BEN; first compound 0.08 µM): 0.7
- relative viability (BEN; first compound 0.253 µM): 0.588
- relative viability (BEN; first compound 0.8 µM): 0.682
- relative viability (BEN; first compound 2.53 µM): 0.677
- relative viability (NCI-H441; first compound 0.08 µM): 1.3
- relative viability (NCI-H441; first compound 0.253 µM): 1.08
- relative viability (NCI-H441; first compound 0.8 µM): 0.994
- relative viability (NCI-H441; first compound 2.53 µM): 1.12
- relative viability (NCI-H2170; first compound 0.08 µM): 0.979
- relative viability (NCI-H2170; first compound 0.253 µM): 0.881
- relative viability (NCI-H2170; first compound 0.8 µM): 0.675
- relative viability (NCI-H2170; first compound 2.53 µM): 0.881
- relative viability (NCI-H727; first compound 0.08 µM): 0.575
- relative viability (NCI-H727; first compound 0.253 µM): 0.572
- relative viability (NCI-H727; first compound 0.8 µM): 0.497
- relative viability (NCI-H727; first compound 2.53 µM): 0.296
- relative viability (ABC-1; first compound 0.08 µM): 0.711
- relative viability (ABC-1; first compound 0.253 µM): 0.86
- relative viability (ABC-1; first compound 0.8 µM): 0.765
- relative viability (ABC-1; first compound 2.53 µM): 0.843
- relative viability (EKVX; first compound 0.08 µM): 0.742
- relative viability (EKVX; first compound 0.253 µM): 0.648
- relative viability (EKVX; first compound 0.8 µM): 0.718
- relative viability (EKVX; first compound 2.53 µM): 0.766

Structure (SMILES): O=c1cc(-c2cccc3c2Sc2ccccc2S3)oc(N2CCOCC2)c1 + NC(=O)Nc1cc(-c2cccc(F)c2)sc1C(=O)N[C@H]1CCCNC1 [AZD7762] (partner 0.2 µM)
- relative viability (PC-14; first compound 0.08 µM): 0.338
- relative viability (PC-14; first compound 0.253 µM): 0.45
- relative viability (PC-14; first compound 0.8 µM): 0.264
- relative viability (PC-14; first compound 2.53 µM): 0.263
- relative viability (PC-14; first compound 8 µM): 0.381
- relative viability (HCC-366; first compound 0.08 µM): 0.258
- relative viability (HCC-366; first compound 0.253 µM): 0.32
- relative viability (HCC-366; first compound 0.8 µM): 0.302
- relative viability (HCC-366; first compound 2.53 µM): 0.118
- relative viability (HCC-366; first compound 8 µM): 0.222
- relative viability (CAL-12T; first compound 0.08 µM): 0.585
- relative viability (CAL-12T; first compound 0.253 µM): 0.555
- relative viability (CAL-12T; first compound 0.8 µM): 0.601
- relative viability (CAL-12T; first compound 2.53 µM): 0.626
- relative viability (CAL-12T; first compound 8 µM): 0.642
- relative viability (SW 900; first compound 0.253 µM): 0.862
- relative viability (SW 900; first compound 0.8 µM): 0.719
- relative viability (SW 900; first compound 2.53 µM): 0.525
- relative viability (SW 900; first compound 8 µM): 0.418
- relative viability (NCI-H1437; first compound 0.08 µM): 1.07
- relative viability (NCI-H1437; first compound 0.253 µM): 1.23
- relative viability (NCI-H1437; first compound 0.8 µM): 1.2
- relative viability (NCI-H1437; first compound 2.53 µM): 1.17
- relative viability (NCI-H1437; first compound 8 µM): 1.23
- relative viability (NCI-H1666; first compound 0.08 µM): 0.76
- relative viability (NCI-H1666; first compound 0.253 µM): 0.928
- relative viability (NCI-H1666; first compound 0.8 µM): 0.781
- relative viability (NCI-H1666; first compound 2.53 µM): 0.773
- relative viability (NCI-H1666; first compound 8 µM): 0.85
- relative viability (NCI-H460; first compound 0.08 µM): 0.742
- relative viability (NCI-H460; first compound 0.253 µM): 0.695
- relative viability (NCI-H460; first compound 0.8 µM): 0.669
- relative viability (NCI-H460; first compound 2.53 µM): 0.431
- relative viability (NCI-H460; first compound 8 µM): 0.685
- relative viability (201T; first compound 0.08 µM): 0.598
- relative viability (201T; first compound 0.253 µM): 0.686
- relative viability (201T; first compound 0.8 µM): 0.741
- relative viability (201T; first compound 2.53 µM): 0.655
- relative viability (201T; first compound 8 µM): 0.546
- relative viability (NCI-H3122; first compound 0.08 µM): 1.02
- relative viability (NCI-H3122; first compound 0.253 µM): 1.06
- relative viability (NCI-H3122; first compound 0.8 µM): 1.03
- relative viability (NCI-H3122; first compound 2.53 µM): 0.933
- relative viability (NCI-H3122; first compound 8 µM): 1.04
- relative viability (HARA; first compound 0.08 µM): 0.234
- relative viability (HARA; first compound 0.253 µM): 0.327
- relative viability (HARA; first compound 0.8 µM): 0.364
- relative viability (HARA; first compound 2.53 µM): 0.208
- relative viability (HARA; first compound 8 µM): 0.256
- relative viability (LOU-NH91; first compound 0.08 µM): 0.764
- relative viability (LOU-NH91; first compound 0.253 µM): 0.778
- relative viability (LOU-NH91; first compound 0.8 µM): 0.697
- relative viability (LOU-NH91; first compound 2.53 µM): 0.714
- relative viability (LOU-NH91; first compound 8 µM): 0.786
- relative viability (LK-2; first compound 0.08 µM): 0.468
- relative viability (LK-2; first compound 0.253 µM): 0.331
- relative viability (LK-2; first compound 0.8 µM): 0.374
- relative viability (LK-2; first compound 2.53 µM): 0.219
- relative viability (LK-2; first compound 8 µM): 0.458
- relative viability (BEN; first compound 0.08 µM): 0.694
- relative viability (BEN; first compound 0.253 µM): 0.656
- relative viability (BEN; first compound 0.8 µM): 0.647
- relative viability (BEN; first compound 2.53 µM): 0.618
- relative viability (BEN; first compound 8 µM): 0.734
- relative viability (NCI-H441; first compound 0.08 µM): 0.965
- relative viability (NCI-H441; first compound 0.253 µM): 1.24
- relative viability (NCI-H441; first compound 0.8 µM): 1.18
- relative viability (NCI-H441; first compound 2.53 µM): 0.941
- relative viability (NCI-H441; first compound 8 µM): 1.21
- relative viability (NCI-H2170; first compound 0.08 µM): 0.842
- relative viability (NCI-H2170; first compound 0.253 µM): 0.868
- relative viability (NCI-H2170; first compound 0.8 µM): 0.996
- relative viability (NCI-H2170; first compound 2.53 µM): 0.792
- relative viability (NCI-H2170; first compound 8 µM): 0.804
- relative viability (NCI-H727; first compound 0.08 µM): 0.501
- relative viability (NCI-H727; first compound 0.253 µM): 0.655
- relative viability (NCI-H727; first compound 2.53 µM): 0.413
- relative viability (NCI-H727; first compound 8 µM): 0.739
- relative viability (ABC-1; first compound 0.08 µM): 0.738
- relative viability (ABC-1; first compound 0.253 µM): 0.7
- relative viability (ABC-1; first compound 0.8 µM): 0.714
- relative viability (ABC-1; first compound 2.53 µM): 1
- relative viability (ABC-1; first compound 8 µM): 0.875
- relative viability (EKVX; first compound 0.08 µM): 0.67
- relative viability (EKVX; first compound 0.253 µM): 0.709
- relative viability (EKVX; first compound 0.8 µM): 0.74
- relative viability (EKVX; first compound 2.53 µM): 0.669
- relative viability (EKVX; first compound 8 µM): 0.717
